# Measured values as given in ChEMBL document CHEMBL3885861, “Open TG-GATES”.
# Species on record: Rattus norvegicus
# Experiment: Open TG-GATES - Regimen: Daily Repeat
# Format: toxicity, organism-based, Sprague-Dawley
# Design: regimen Daily Repeat, gender Male, age 6 weeks
# Settings: in vivo, po, 0 mg/kg, route gavage, dose level Control; for APTT / Bas / Eos / Fbg / Hb / Ht / Lym / MCH / MCHC / MCV / Mono / Neu / PT / Plat / RBC / Ret / WBC: tissue Blood
# [1] = 72 h, tissue Kidney, time 3 day
# [2] = 72 h, tissue Plasma, time 3 day
smiles,measurement,setting,value
CC1=C(/C=C/C(C)=C/C=C/C(C)=C/CO)C(C)(C)CCC1 [RETINOL],TERMINAL_BW,"72 h, time 3 day",232.6 g
same,APTT,"72 h, time 3 day",21.2 s
same,Bas,"72 h, time 3 day",0%
same,Eos,"72 h, time 3 day",0.8%
same,Fbg,"72 h, time 3 day",302.6 mg/dL
same,Hb,"72 h, time 3 day",13.6 g/dL
same,Ht,"72 h, time 3 day",39.5%
same,Lym,"72 h, time 3 day",81.8%
same,MCH,"72 h, time 3 day",21.4 pg
same,MCHC,"72 h, time 3 day",34.4%
same,MCV,"72 h, time 3 day",62 fL
same,Mono,"72 h, time 3 day",2.8%
same,Neu,"72 h, time 3 day",14%
same,PT,"72 h, time 3 day",16.6 s
same,Plat,"72 h, time 3 day",116.8 x10_4/uL
same,RBC,"72 h, time 3 day",637 x10_4/ul
same,Ret,"72 h, time 3 day",6.6%
same,WBC,"72 h, time 3 day",108.7 x10_2/uL
same,KIDNEY_L,[1],1.1 g
same,KIDNEY_R,[1],1.1 g
same,KIDNEY_TOTAL,[1],2.1 g
same,LIVER,"72 h, tissue Liver, time 3 day",11 g
same,A/G,[2],1.2
same,ALP,[2],1642.8 IU/L
same,ALT,[2],49.4 IU/L
same,AST,[2],76.2 IU/L
same,BUN,[2],18.6 mg/dL
same,CRE,[2],0.1 mg/dL
same,Ca,[2],10.9 mg/dL
same,Cl,[2],106.8 meq/L
same,DBIL,[2],0 mg/dL
same,GLC,[2],199.8 mg/dL
same,IP,[2],6.8 mg/dL
same,K,[2],4.6 meq/L
same,LDH,[2],251.8 IU/L
same,Na,[2],141.2 meq/L
same,PL,[2],145.4 mg/dL
same,RALB,[2],3 g/dL
same,TBIL,[2],0.012 mg/dL
same,TC,[2],76.2 mg/dL
same,TG,[2],94.8 mg/dL
same,TP,[2],5.5 g/dL
same,gamma-GTP,[2],1 IU/L
same,TERMINAL_BW,"[…], time 7 day",257.6 g
same,TERMINAL_BW,"[…], time 14 day",301.9 g
same,TERMINAL_BW,"[…], time 28 day",374.5 g
same,APTT,"[…], time 7 day",20.5 s
same,Bas,"[…], time 7 day",0%
same,Eos,"[…], time 7 day",0.8%
same,Fbg,"[…], time 7 day",304.8 mg/dL
same,Hb,"[…], time 7 day",13.6 g/dL
same,Ht,"[…], time 7 day",38.8%
same,Lym,"[…], time 7 day",79.6%
same,MCH,"[…], time 7 day",20.9 pg
same,MCHC,"[…], time 7 day",35.1%
same,MCV,"[…], time 7 day",59.7 fL
same,Mono,"[…], time 7 day",2.2%
same,Neu,"[…], time 7 day",16.4%
same,PT,"[…], time 7 day",16.3 s
same,Plat,"[…], time 7 day",117.2 x10_4/uL
same,RBC,"[…], time 7 day",650.4 x10_4/ul
same,Ret,"[…], time 7 day",5.1%
same,WBC,"[…], time 7 day",114.1 x10_2/uL
same,APTT,"[…], time 14 day",21.4 s
same,Bas,"[…], time 14 day",0%
same,Eos,"[…], time 14 day",0.4%
same,Fbg,"[…], time 14 day",312 mg/dL
same,Hb,"[…], time 14 day",13.7 g/dL
same,Ht,"[…], time 14 day",38.7%
same,Lym,"[…], time 14 day",78%
same,MCH,"[…], time 14 day",20.9 pg
same,MCHC,"[…], time 14 day",35.4%
same,MCV,"[…], time 14 day",59.2 fL
same,Mono,"[…], time 14 day",2%
same,Neu,"[…], time 14 day",18.2%
same,PT,"[…], time 14 day",16.1 s
same,Plat,"[…], time 14 day",122.4 x10_4/uL
same,RBC,"[…], time 14 day",654 x10_4/ul
same,Ret,"[…], time 14 day",5.2%
same,WBC,"[…], time 14 day",121.8 x10_2/uL
same,APTT,"[…], time 28 day",24.2 s
same,Bas,"[…], time 28 day",0%
same,Eos,"[…], time 28 day",1%
same,Fbg,"[…], time 28 day",354.8 mg/dL
same,Hb,"[…], time 28 day",15.1 g/dL
same,Ht,"[…], time 28 day",42.6%
